Source: the NIST ThermoML archive (doi:10.1021/acs.jced.5b00152)
± gives the expanded uncertainty stated by the source.

Settings: Liquid; for viscosity: Capillary tube (Ostwald / Ubbelohde) method; for mass density: Vibrating tube method

CCCCCC [hexane]
Settings	mass density [kg/m3]	viscosity [mPa·s]
293.22 K, 1999 kPa	661.4 ± 5.2	0.3196 ± 0.015
293.22 K, 3994 kPa	663.53 ± 5.2	0.3287 ± 0.016
293.22 K, 5999 kPa	665.43 ± 5.2	0.339 ± 0.016
293.22 K, 8007 kPa	667.57 ± 5.3	0.3483 ± 0.017
293.22 K, 22004 kPa	680.38 ± 5.5	0.4135 ± 0.02
293.22 K, 28004 kPa	685.01 ± 5.5	0.4427 ± 0.021
293.23 K, 10003 kPa	669.41 ± 5.3	0.3576 ± 0.017
293.23 K, 13000 kPa	672.26 ± 5.3	0.3713 ± 0.018
293.23 K, 16006 kPa	675.2 ± 5.4	0.3851 ± 0.018
293.23 K, 19000 kPa	677.83 ± 5.4	0.399 ± 0.019
293.23 K, 25002 kPa	682.87 ± 5.5	0.428 ± 0.02
293.23 K, 30001 kPa	686.72 ± 5.5	0.4521 ± 0.022
313.1 K, 2005 kPa	643.6 ± 5	0.2614 ± 0.012
313.1 K, 3997 kPa	645.97 ± 5	0.2702 ± 0.013
313.1 K, 5999 kPa	648.24 ± 5.1	0.2774 ± 0.013
313.1 K, 8000 kPa	650.44 ± 5.1	0.2853 ± 0.014
313.1 K, 9999 kPa	652.57 ± 5.1	0.2934 ± 0.014
313.1 K, 12997 kPa	655.73 ± 5.2	0.305 ± 0.015
313.1 K, 15999 kPa	659 ± 5.2	0.3165 ± 0.015
313.1 K, 18003 kPa	661.04 ± 5.3	0.3243 ± 0.015
313.1 K, 21999 kPa	664.77 ± 5.3	0.3399 ± 0.016
313.1 K, 24998 kPa	667.58 ± 5.4	0.3504 ± 0.017
313.1 K, 28001 kPa	670.32 ± 5.4	0.3631 ± 0.017
313.1 K, 30004 kPa	672.03 ± 5.4	0.37 ± 0.018
333 K, 2004 kPa	624.85 ± 4.8	0.2192 ± 0.01
333 K, 4002 kPa	627.59 ± 4.9	0.226 ± 0.011
333 K, 6003 kPa	630.29 ± 4.9	0.2328 ± 0.011
333 K, 8005 kPa	632.82 ± 5	0.2396 ± 0.011
333 K, 10008 kPa	635.78 ± 5	0.2467 ± 0.012
333 K, 12998 kPa	639.36 ± 5	0.2565 ± 0.012
333 K, 16002 kPa	642.74 ± 5.1	0.2667 ± 0.013
333 K, 19000 kPa	646.04 ± 5.1	0.2766 ± 0.013
333 K, 21993 kPa	649.32 ± 5.2	0.2863 ± 0.014
333 K, 25001 kPa	652.41 ± 5.2	0.296 ± 0.014
333 K, 28000 kPa	655.31 ± 5.3	0.3058 ± 0.015
333 K, 30005 kPa	657.29 ± 5.3	0.3128 ± 0.015
353.14 K, 4001 kPa	608.43 ± 4.7	0.1911 ± 0.0092
353.14 K, 8003 kPa	614.97 ± 4.8	0.203 ± 0.0097
353.14 K, 15997 kPa	625.92 ± 4.9	0.2264 ± 0.011
353.14 K, 21998 kPa	633.46 ± 5	0.2438 ± 0.012
353.15 K, 2003 kPa	605.15 ± 4.7	0.1848 ± 0.0089
353.15 K, 5997 kPa	611.57 ± 4.8	0.197 ± 0.0094
353.15 K, 10009 kPa	618 ± 4.8	0.2091 ± 0.01
353.15 K, 13000 kPa	622.08 ± 4.9	0.2179 ± 0.01
353.15 K, 19000 kPa	629.87 ± 5	0.2352 ± 0.011
